In PubChem BioAssay (NCI):
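Each compound was tested at five concentrations against cells in 96-well plates for 48 hours. Abbreviation: GI50, concentration required for 50% inhibition of growth. TGI denotes the concentration required for complete inhibition of growth.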

Assays:
Test in all cases: NCI tumour cell line growth inhibition, 48 h
SK-MEL-28 melanoma = test system: SK-MEL-28 melanoma
U251 CNS = test system: U251 CNS
SR leukemia = test system: SR leukemia
UACC-257 melanoma = test system: UACC-257 melanoma
SK-OV-3 ovarian = test system: SK-OV-3 ovarian
DMS 114 small cell lung = test system: DMS 114 small cell lung
SNB-78 CNS = test system: SNB-78 CNS
UO-31 renal = test system: UO-31 renal
CAKI-1 renal = test system: CAKI-1 renal
NCI-H522 lung = test system: NCI-H522 lung
LXFL 529 NSCLC = test system: LXFL 529 NSCLC
CCRF-CEM leukemia = test system: CCRF-CEM leukemia
MALME-3M melanoma = test system: MALME-3M melanoma
UACC-62 melanoma = test system: UACC-62 melanoma
EKVX NSCLC = test system: EKVX NSCLC
COLO 205 colon = test system: COLO 205 colon
OVCAR-5 ovarian = test system: OVCAR-5 ovarian
HT29 colon = test system: HT29 colon
HCT-15 colon = test system: HCT-15 colon
M14 melanoma = test system: M14 melanoma
NCI-H460 lung = test system: NCI-H460 lung
KM20L2 colon = test system: KM20L2 colon
LOX IMVI melanoma = test system: LOX IMVI melanoma
IGROV1 ovarian = test system: IGROV1 ovarian
OVCAR-4 ovarian = test system: OVCAR-4 ovarian
ACHN renal = test system: ACHN renal
SW-620 colon = test system: SW-620 colon
NCI-H226 lung = test system: NCI-H226 lung
A498 renal = test system: A498 renal
DLD-1 colon = test system: DLD-1 colon
HCT-116 colon = test system: HCT-116 colon
RXF-631 renal = test system: RXF-631 renal
M19-MEL melanoma = test system: M19-MEL melanoma
DMS 273 small cell lung = test system: DMS 273 small cell lung
786-0 renal = test system: 786-0 renal
SF-268 CNS = test system: SF-268 CNS
SF-295 CNS = test system: SF-295 CNS
KM12 colon = test system: KM12 colon
RXF 393 renal = test system: RXF 393 renal
SK-MEL-2 melanoma = test system: SK-MEL-2 melanoma
TK-10 renal = test system: TK-10 renal
SK-MEL-5 melanoma = test system: SK-MEL-5 melanoma
K-562 leukemia = test system: K-562 leukemia
HCC-2998 colon = test system: HCC-2998 colon
RPMI-8226 leukemia = test system: RPMI-8226 leukemia
HOP-92 NSCLC = test system: HOP-92 NSCLC
OVCAR-8 ovarian = test system: OVCAR-8 ovarian
HL-60(TB) leukemia = test system: HL-60(TB) leukemia
SNB-19 CNS = test system: SNB-19 CNS
HOP-18 NSCLC = test system: HOP-18 NSCLC
HOP-62 NSCLC = test system: HOP-62 NSCLC
OVCAR-3 ovarian = test system: OVCAR-3 ovarian
XF 498 CNS = test system: XF 498 CNS
MOLT-4 leukemia = test system: MOLT-4 leukemia
NCI-H23 lung = test system: NCI-H23 lung
SNB-75 CNS = test system: SNB-75 CNS
A549 NSCLC = test system: A549 NSCLC
SN12C renal = test system: SN12C renal
SF-539 CNS = test system: SF-539 CNS

COc1ccc2nc3cc(Cl)ccc3c(Sc3ccc([N+](=O)[O-])cc3)c2c1
GI50 (SK-MEL-28 melanoma): > 100 µM
TGI (SK-MEL-28 melanoma): > 100 µM
GI50 (U251 CNS): > 100 µM
TGI (U251 CNS): > 100 µM
TGI (SR leukemia): > 10 µM
GI50 (UACC-257 melanoma): > 100 µM
TGI (UACC-257 melanoma): > 100 µM
GI50 (SK-OV-3 ovarian): > 100 µM
TGI (SK-OV-3 ovarian): > 100 µM
GI50 (DMS 114 small cell lung): > 100 µM
TGI (DMS 114 small cell lung): > 100 µM
TGI (SNB-78 CNS): > 10 µM
GI50 (UO-31 renal): > 100 µM
TGI (UO-31 renal): > 100 µM
GI50 (CAKI-1 renal): > 100 µM
TGI (CAKI-1 renal): > 100 µM
GI50 (NCI-H522 lung): > 100 µM
TGI (NCI-H522 lung): > 100 µM
GI50 (LXFL 529 NSCLC): > 100 µM
TGI (LXFL 529 NSCLC): > 100 µM
GI50 (CCRF-CEM leukemia): > 100 µM
TGI (CCRF-CEM leukemia): > 100 µM
GI50 (MALME-3M melanoma): > 100 µM
TGI (MALME-3M melanoma): > 100 µM
GI50 (UACC-62 melanoma): > 100 µM
TGI (UACC-62 melanoma): > 100 µM
GI50 (EKVX NSCLC): > 100 µM
TGI (EKVX NSCLC): > 100 µM
GI50 (COLO 205 colon): > 100 µM
TGI (COLO 205 colon): > 100 µM
GI50 (OVCAR-5 ovarian): > 100 µM
TGI (OVCAR-5 ovarian): > 100 µM
TGI (HT29 colon): > 100 µM
GI50 (HCT-15 colon): > 100 µM
TGI (HCT-15 colon): > 100 µM
GI50 (M14 melanoma): > 100 µM
TGI (M14 melanoma): > 100 µM
GI50 (NCI-H460 lung): > 100 µM
TGI (NCI-H460 lung): > 100 µM
GI50 (KM20L2 colon): > 100 µM
TGI (KM20L2 colon): > 100 µM
GI50 (LOX IMVI melanoma): > 100 µM
TGI (LOX IMVI melanoma): > 100 µM
GI50 (IGROV1 ovarian): > 100 µM
TGI (IGROV1 ovarian): > 100 µM
GI50 (OVCAR-4 ovarian): > 100 µM
TGI (OVCAR-4 ovarian): > 100 µM
TGI (ACHN renal): > 10 µM
GI50 (SW-620 colon): > 100 µM
TGI (SW-620 colon): > 100 µM
GI50 (NCI-H226 lung): > 100 µM
TGI (NCI-H226 lung): > 100 µM
GI50 (A498 renal): > 100 µM
TGI (A498 renal): > 100 µM
GI50 (DLD-1 colon): > 100 µM
TGI (DLD-1 colon): > 100 µM
GI50 (HCT-116 colon): > 100 µM
TGI (HCT-116 colon): > 100 µM
GI50 (RXF-631 renal): > 100 µM
TGI (RXF-631 renal): > 100 µM
GI50 (M19-MEL melanoma): > 100 µM
TGI (M19-MEL melanoma): > 100 µM
GI50 (DMS 273 small cell lung): > 100 µM
TGI (DMS 273 small cell lung): > 100 µM
GI50 (786-0 renal): > 100 µM
TGI (786-0 renal): > 100 µM
GI50 (SF-268 CNS): > 100 µM
TGI (SF-268 CNS): > 100 µM
GI50 (SF-295 CNS): > 100 µM
TGI (SF-295 CNS): > 100 µM
GI50 (KM12 colon): > 100 µM
TGI (KM12 colon): > 100 µM
GI50 (RXF 393 renal): > 100 µM
TGI (RXF 393 renal): > 100 µM
GI50 (SK-MEL-2 melanoma): > 100 µM
TGI (SK-MEL-2 melanoma): > 100 µM
GI50 (TK-10 renal): > 100 µM
TGI (TK-10 renal): > 100 µM
GI50 (SK-MEL-5 melanoma): > 100 µM
TGI (SK-MEL-5 melanoma): > 100 µM
GI50 (K-562 leukemia): > 100 µM
TGI (K-562 leukemia): > 100 µM
TGI (HCC-2998 colon): > 10 µM
TGI (RPMI-8226 leukemia): > 100 µM
GI50 (HOP-92 NSCLC): > 100 µM
TGI (HOP-92 NSCLC): > 100 µM
GI50 (OVCAR-8 ovarian): > 100 µM
TGI (OVCAR-8 ovarian): > 100 µM
TGI (HL-60(TB) leukemia): > 100 µM
GI50 (SNB-19 CNS): > 100 µM
TGI (SNB-19 CNS): > 100 µM
GI50 (HOP-18 NSCLC): > 100 µM
TGI (HOP-18 NSCLC): > 100 µM
GI50 (HOP-62 NSCLC): > 100 µM
TGI (HOP-62 NSCLC): > 100 µM
GI50 (OVCAR-3 ovarian): > 100 µM
TGI (OVCAR-3 ovarian): > 100 µM
GI50 (XF 498 CNS): > 100 µM
TGI (XF 498 CNS): > 100 µM
GI50 (MOLT-4 leukemia): > 100 µM
TGI (MOLT-4 leukemia): > 100 µM
GI50 (NCI-H23 lung): > 100 µM
TGI (NCI-H23 lung): > 100 µM
GI50 (SNB-75 CNS): > 10 µM
TGI (SNB-75 CNS): > 100 µM
GI50 (A549 NSCLC): > 100 µM
TGI (A549 NSCLC): > 100 µM
GI50 (SN12C renal): > 100 µM
TGI (SN12C renal): > 100 µM
TGI (SF-539 CNS): > 10 µM
